Here are results for four compounds from US20240286994A1, “NOVEL SQUARAMIDE DERIVATIVE AND USE THEREOF” (PUSAN NATIONAL UNIVERSITY INDUSTRY-UNIVERSITY COOPERATION …, priority 2021, published 2024).

Molecules are shown by their SMILES.

For the assay, the system named is eIF2α phosphorylation. Put plainly: Phospho-eIF2α (Ser51) sandwich ELISA in K562 cells. The format is cell-based. To be noted: serum-free RPMI, 10 μM compound, 6 hours; for Multiple changes in eIF2α phosphorylation at 10 μM (absorbance standardized to control = 1): DMSO-treated control set to 1; for fold induction at 10 µM: Homo sapiens, DMSO-treated control set to 1, read-out: Multiple changes in eIF2α phosphorylation at 10 μM (absorbance standardized to control = 1). Here is the method: Pathscan Phospho-eIF2a (Ser51) Sandwich ELISA Kit #7286 from Cell signaling was used. The K562 cell line was cultured in serum-free RPMI medium at 37° C. in the presence of 5% CO2. Cells were treated with test compounds at a concentration of 10 μM. Six hours after compound treatment, the cells were lysed with a lysis buffer included in the kit to obtain 50 μg of protein by quantification. Afterwards, ELISA assay was performed according to the manufacturer's protocol to obtain absorbance. The absorbance for each obtained compound was standardized to a value of which the control (DMSO-treated) is set to 1.
In general terms: An ELISA detects its analyte on a solid surface through an enzyme-linked reagent.

With `CC(C)(C)c1cccc(Nc2c(N[C@H]3CC[C@H](Oc4ccc(C(F)(F)F)cc4)CC3)c(=O)c2=O)c1` [Compound 28, 3-((3-(tert-Butyl)phenyl)amino)-4-(((1,4-trans)-4-(4-(trifluoromethyl)phenoxy)cyclohexyl)amino)cyclobut-3-ene-1,2-dione], the “Multiple changes in eIF2α phosphorylation at 10 μM (absorbance standardized to control = 1)” value came out at 1.92.

On to `CS(=O)(=O)c1ccc(O[C@H]2CC[C@H](Nc3c(Nc4ccccc4F)c(=O)c3=O)CC2)cc1` [Compound 65, 3-((2-Fluorophenyl)amino)-4-(((1,4-trans)-4-(4-(methylsulfonyl)phenoxy)cyclohexyl)amino)cyclobut-3-ene-1,2-dione], for which the fold induction at 10 µM worked out at 1.07.

In the case of `COc1cccc(Nc2c(N[C@H]3CC[C@H](Oc4ccc(C(F)(F)F)cc4)CC3)c(=O)c2=O)c1` [Compound 33, 3-((3-Methoxyphenyl)amino)-4-(((1,4-trans)-4-(4-(trifluoromethyl)phenoxy)cyclohexyl)amino)cyclobut-3-ene-1,2-dione], the fold induction at 10 µM is 0.83.

For the compound `CC(C)(C)c1ccccc1Nc1c(N[C@H]2CC[C@H](Oc3ccc(S(C)(=O)=O)cc3)CC2)c(=O)c1=O` [Compound 77, 3-((2-(tert-Butyl)phenyl)amino)-4-(((1,4-trans)-4-(4-(methylsulfonyl)phenoxy)cyclohexyl)amino)cyclobut-3-ene-1,2-dione], the “Multiple changes in eIF2α phosphorylation at 10 μM (absorbance standardized to control = 1)” value is 1.70.
